{
  "source": "ChEMBL document CHEMBL3593229",
  "about": "“Identification of a potent 5-phenyl-thiazol-2-ylamine-based inhibitor of FLT3 with activity against drug resistance-conferring point mutations” (Eur J Med Chem, 2015)",
  "key": {"[1]": {"target": "Serine/threonine-protein kinase PLK1 (Homo sapiens) (UniProt P53350)", "assay": "Inhibition of human PLK1 at 0.1 uM relative to control"}, "[2]": {"target": "Tyrosine-protein kinase HCK (Homo sapiens) (UniProt P08631)", "assay": "Inhibition of human HCK at 0.1 uM relative to control"}, "[3]": {"target": "Mast/stem cell growth factor receptor Kit (Homo sapiens) (UniProt P10721)", "assay": "Inhibition of human KIT at 0.1 uM relative to control"}, "[4]": {"target": "Angiopoietin-1 receptor (Homo sapiens) (UniProt Q02763)", "assay": "Inhibition of human TEK at 0.1 uM relative to control"}, "[5]": {"target": "Mitogen-activated protein kinase 14 (Homo sapiens) (UniProt Q16539)", "sequence (Q16539 whole entry)": "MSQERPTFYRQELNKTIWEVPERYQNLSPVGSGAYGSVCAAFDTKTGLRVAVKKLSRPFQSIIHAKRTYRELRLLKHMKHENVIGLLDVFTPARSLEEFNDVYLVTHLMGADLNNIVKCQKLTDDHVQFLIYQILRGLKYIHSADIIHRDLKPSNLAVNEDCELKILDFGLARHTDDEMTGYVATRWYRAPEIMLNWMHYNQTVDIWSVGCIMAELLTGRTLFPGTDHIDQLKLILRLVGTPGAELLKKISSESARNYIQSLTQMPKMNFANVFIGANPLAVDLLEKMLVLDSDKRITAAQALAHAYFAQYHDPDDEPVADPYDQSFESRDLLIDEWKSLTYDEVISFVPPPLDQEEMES", "assay": "Inhibition of human MAPK14 at 0.1 uM relative to control"}, "[6]": {"target": "Serine/threonine-protein kinase B-raf (Homo sapiens) (UniProt P15056)", "assay": "Inhibition of human BRAF at 0.1 uM relative to control"}, "[7]": {"assay": "Oral bioavailability in ICR mouse at 10 mg/kg", "assay_type": "ADME, organism-based", "details": "in vivo"}, "[8]": {"target": "Insulin-like growth factor 1 receptor (Homo sapiens) (UniProt P08069)", "assay": "Inhibition of human IGF1R at 0.1 uM relative to control"}, "[9]": {"target": "AMP-activated protein kinase, AMPK (Homo sapiens) (UniProt P54646+O43741+P54619+Q9UGJ0+Q9Y478+Q13131+Q9UGI9)", "assay": "Inhibition of human AMPK A1/B1/G1 at 0.1 uM relative to control", "assay_type": "protein-complex assay"}, "animal or person": {"assay": "animal or person", "details": "Mus musculus, 32D, po, read-out: TGI"}, "[10]": {"target": "Glycogen synthase kinase-3 alpha (Homo sapiens) (UniProt P49840)", "assay": "Inhibition of human GSK3A at 0.1 uM relative to control"}, "[11]": {"target": "T1, Receptor-type tyrosine-protein kinase FLT3 (Homo sapiens, UniProt P36888)", "T1 sequence (P36888 whole entry)": "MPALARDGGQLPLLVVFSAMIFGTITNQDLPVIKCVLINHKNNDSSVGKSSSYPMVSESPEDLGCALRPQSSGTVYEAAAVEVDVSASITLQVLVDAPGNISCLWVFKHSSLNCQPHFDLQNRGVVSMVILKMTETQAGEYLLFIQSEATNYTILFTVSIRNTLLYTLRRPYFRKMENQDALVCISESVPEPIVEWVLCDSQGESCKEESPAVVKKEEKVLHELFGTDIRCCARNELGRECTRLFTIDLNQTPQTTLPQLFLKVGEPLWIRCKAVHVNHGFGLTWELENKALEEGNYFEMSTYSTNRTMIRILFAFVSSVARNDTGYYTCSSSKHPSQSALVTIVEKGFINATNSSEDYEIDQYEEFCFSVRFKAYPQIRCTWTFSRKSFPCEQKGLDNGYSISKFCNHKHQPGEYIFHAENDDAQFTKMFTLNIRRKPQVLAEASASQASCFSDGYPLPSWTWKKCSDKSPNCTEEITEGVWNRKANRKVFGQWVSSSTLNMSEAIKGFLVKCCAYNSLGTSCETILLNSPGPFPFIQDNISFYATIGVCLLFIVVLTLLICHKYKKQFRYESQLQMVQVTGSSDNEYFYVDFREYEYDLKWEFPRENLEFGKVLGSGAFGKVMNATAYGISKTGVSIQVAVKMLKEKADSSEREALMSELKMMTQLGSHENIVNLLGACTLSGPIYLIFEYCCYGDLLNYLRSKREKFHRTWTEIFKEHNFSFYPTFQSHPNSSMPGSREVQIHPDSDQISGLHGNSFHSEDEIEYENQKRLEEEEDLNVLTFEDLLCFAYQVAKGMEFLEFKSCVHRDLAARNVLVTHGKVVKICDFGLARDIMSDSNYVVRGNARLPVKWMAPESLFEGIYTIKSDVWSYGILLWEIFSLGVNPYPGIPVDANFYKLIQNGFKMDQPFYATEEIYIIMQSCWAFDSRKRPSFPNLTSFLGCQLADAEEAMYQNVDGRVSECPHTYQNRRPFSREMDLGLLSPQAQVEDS", "assay": "biochemical", "assay_type": "cell-based, Sf9", "description": "Inhibition of wild type GST-tagged FLT3 kinase domain (Y567 to S993) (unknown origin) expressed in baculovirus infected insect Sf9 cells using Her2 peptide as substrate after 4 hrs by Kinase-Glo assay"}, "[12]": {"target": "Ribosomal protein S6 kinase alpha-3 (Homo sapiens) (UniProt P51812)", "sequence (P51812 whole entry)": "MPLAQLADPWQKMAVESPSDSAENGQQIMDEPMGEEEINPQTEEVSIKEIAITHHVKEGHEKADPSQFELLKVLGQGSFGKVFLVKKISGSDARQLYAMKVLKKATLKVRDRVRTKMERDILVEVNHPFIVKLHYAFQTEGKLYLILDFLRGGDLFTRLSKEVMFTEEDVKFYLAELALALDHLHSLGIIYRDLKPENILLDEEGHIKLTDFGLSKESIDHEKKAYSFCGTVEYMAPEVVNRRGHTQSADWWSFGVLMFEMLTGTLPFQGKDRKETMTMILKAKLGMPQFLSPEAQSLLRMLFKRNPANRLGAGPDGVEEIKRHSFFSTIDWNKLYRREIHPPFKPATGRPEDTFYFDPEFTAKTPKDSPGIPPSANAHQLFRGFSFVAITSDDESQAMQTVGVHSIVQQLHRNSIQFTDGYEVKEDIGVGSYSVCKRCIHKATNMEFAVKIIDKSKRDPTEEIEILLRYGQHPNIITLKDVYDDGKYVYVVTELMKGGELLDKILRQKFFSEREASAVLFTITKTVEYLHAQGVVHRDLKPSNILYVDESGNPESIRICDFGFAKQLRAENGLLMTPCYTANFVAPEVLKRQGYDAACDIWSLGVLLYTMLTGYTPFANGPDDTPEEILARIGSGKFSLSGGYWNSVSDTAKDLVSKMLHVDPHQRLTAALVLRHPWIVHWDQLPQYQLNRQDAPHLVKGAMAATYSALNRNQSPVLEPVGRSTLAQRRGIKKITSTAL", "assay": "Inhibition of human RSK2 at 0.1 uM relative to control"}, "[13]": {"target": "Serine/threonine-protein kinase Chk1 (Homo sapiens) (UniProt O14757)", "sequence (O14757 whole entry)": "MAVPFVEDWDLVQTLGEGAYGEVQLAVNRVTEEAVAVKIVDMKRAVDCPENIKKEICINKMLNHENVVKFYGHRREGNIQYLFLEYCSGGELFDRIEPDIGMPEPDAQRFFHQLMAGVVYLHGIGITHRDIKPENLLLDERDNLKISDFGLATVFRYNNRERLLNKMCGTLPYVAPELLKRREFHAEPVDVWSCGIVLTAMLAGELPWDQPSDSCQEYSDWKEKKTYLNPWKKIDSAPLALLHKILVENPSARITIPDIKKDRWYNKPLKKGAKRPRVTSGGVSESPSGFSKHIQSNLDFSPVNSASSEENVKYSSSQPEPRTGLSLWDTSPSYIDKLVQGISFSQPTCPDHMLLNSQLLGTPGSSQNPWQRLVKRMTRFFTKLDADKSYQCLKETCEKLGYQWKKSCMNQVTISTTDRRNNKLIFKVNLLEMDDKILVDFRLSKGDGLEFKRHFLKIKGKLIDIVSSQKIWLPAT", "assay": "Inhibition of human CHK1 at 0.1 uM relative to control"}, "[14]": {"target": "Interleukin-1 receptor-associated kinase 4 (Homo sapiens) (UniProt Q9NWZ3)", "assay": "Inhibition of human IRAK4 at 0.1 uM relative to control"}, "[15]": {"target": "Tyrosine-protein kinase JAK1 (Homo sapiens) (UniProt P23458)", "sequence (P23458 whole entry)": "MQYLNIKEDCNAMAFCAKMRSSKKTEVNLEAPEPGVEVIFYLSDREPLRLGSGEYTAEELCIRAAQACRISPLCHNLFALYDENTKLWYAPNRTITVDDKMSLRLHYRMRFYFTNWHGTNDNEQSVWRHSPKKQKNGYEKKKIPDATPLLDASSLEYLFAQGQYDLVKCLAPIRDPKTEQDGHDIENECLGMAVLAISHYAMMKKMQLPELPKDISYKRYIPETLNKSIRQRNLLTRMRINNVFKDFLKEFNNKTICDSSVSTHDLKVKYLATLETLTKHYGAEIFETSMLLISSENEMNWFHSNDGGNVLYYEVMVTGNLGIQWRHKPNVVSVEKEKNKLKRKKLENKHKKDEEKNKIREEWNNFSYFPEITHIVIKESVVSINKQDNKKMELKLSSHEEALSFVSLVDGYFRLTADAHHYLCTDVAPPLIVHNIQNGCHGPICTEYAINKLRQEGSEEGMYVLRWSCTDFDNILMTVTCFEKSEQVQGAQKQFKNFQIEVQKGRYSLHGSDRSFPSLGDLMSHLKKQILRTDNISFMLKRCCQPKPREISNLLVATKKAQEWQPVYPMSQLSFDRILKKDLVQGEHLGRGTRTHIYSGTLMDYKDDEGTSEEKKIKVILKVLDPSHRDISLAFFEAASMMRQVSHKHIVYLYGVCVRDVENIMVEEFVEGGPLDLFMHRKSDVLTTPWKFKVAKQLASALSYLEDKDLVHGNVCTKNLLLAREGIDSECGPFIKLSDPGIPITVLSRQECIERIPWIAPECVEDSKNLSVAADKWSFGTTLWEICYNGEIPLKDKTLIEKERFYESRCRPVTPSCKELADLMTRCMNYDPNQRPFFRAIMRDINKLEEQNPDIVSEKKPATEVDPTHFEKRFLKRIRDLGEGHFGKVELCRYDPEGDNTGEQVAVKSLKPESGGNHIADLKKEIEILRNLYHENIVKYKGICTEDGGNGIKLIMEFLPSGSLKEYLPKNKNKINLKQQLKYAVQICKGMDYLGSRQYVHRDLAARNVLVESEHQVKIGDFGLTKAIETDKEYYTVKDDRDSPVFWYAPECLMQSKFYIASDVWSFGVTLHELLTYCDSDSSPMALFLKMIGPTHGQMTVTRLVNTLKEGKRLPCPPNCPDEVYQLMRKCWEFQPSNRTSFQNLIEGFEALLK", "assay": "Inhibition of human JAK1 at 0.1 uM relative to control"}, "[16]": {"tested_on": "Tyrosine-protein kinase ABL1 (Homo sapiens), P00519 [T315I]", "assay": "Inhibition of human ABL1 T315I mutant at 0.1 uM relative to control"}, "[17]": {"target": "Tyrosine-protein kinase Yes (Homo sapiens) (UniProt P07947)", "assay": "Inhibition of human YES1 at 0.1 uM relative to control"}, "[18]": {"tested_on": "Proto-oncogene tyrosine-protein kinase receptor Ret (Homo sapiens), P07949 [V804L]", "sequence (P07949 whole entry V804L)": "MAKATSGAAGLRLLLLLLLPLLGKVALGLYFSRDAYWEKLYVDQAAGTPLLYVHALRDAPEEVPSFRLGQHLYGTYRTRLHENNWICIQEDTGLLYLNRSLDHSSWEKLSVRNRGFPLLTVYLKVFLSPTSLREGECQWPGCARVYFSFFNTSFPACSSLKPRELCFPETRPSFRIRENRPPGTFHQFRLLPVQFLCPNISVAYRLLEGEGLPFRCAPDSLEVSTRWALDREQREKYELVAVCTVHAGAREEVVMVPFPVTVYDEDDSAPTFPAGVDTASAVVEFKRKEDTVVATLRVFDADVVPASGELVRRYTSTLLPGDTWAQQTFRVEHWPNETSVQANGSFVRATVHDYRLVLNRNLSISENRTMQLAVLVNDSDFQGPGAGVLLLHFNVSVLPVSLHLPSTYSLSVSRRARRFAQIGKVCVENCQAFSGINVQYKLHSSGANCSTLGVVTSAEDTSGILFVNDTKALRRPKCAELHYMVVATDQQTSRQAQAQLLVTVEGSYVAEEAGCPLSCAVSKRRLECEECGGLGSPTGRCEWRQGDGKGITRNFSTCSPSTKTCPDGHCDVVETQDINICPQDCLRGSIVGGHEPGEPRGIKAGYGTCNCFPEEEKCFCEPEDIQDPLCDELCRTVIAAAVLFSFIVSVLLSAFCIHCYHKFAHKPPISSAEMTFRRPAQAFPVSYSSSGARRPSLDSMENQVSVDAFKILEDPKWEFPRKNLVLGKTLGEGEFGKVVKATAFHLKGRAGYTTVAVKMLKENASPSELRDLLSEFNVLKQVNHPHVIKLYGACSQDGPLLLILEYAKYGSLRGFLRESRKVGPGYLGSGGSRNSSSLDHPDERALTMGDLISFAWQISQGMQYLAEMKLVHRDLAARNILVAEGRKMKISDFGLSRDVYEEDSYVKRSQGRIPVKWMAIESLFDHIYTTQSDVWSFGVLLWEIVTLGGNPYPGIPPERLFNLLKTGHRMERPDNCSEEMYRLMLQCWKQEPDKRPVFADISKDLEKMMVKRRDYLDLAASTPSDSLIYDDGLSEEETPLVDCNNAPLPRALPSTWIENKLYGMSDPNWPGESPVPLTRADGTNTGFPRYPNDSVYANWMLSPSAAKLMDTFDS", "assay": "Inhibition of human RET V804L mutant at 0.1 uM relative to control"}, "[19]": {"assay": "Half life in Sprague-Dawley rat at 10 mg/kg, po", "assay_type": "ADME, organism-based", "details": "in vivo"}, "U-937": {"tested_on": "U-937", "assay": "cells", "assay_type": "functional", "details": "Homo sapiens, U-937, 72 h", "description": "Cytotoxicity against FLT3-deficient human U937 cells assessed as cell growth inhibition after 72 hrs by MTS assay"}, "[20]": {"assay": "Cmax in Sprague-Dawley rat at 10 mg/kg, po", "assay_type": "ADME, organism-based", "design": "dose 10 mg/kg, route oral", "details": "in vivo"}, "[21]": {"assay": "Oral bioavailability in Sprague-Dawley rat at 10 mg/kg", "assay_type": "ADME, organism-based", "details": "in vivo"}, "[22]": {"tested_on": "Platelet-derived growth factor receptor alpha (Homo sapiens), P16234 [D842V]", "sequence (P16234 whole entry D842V)": "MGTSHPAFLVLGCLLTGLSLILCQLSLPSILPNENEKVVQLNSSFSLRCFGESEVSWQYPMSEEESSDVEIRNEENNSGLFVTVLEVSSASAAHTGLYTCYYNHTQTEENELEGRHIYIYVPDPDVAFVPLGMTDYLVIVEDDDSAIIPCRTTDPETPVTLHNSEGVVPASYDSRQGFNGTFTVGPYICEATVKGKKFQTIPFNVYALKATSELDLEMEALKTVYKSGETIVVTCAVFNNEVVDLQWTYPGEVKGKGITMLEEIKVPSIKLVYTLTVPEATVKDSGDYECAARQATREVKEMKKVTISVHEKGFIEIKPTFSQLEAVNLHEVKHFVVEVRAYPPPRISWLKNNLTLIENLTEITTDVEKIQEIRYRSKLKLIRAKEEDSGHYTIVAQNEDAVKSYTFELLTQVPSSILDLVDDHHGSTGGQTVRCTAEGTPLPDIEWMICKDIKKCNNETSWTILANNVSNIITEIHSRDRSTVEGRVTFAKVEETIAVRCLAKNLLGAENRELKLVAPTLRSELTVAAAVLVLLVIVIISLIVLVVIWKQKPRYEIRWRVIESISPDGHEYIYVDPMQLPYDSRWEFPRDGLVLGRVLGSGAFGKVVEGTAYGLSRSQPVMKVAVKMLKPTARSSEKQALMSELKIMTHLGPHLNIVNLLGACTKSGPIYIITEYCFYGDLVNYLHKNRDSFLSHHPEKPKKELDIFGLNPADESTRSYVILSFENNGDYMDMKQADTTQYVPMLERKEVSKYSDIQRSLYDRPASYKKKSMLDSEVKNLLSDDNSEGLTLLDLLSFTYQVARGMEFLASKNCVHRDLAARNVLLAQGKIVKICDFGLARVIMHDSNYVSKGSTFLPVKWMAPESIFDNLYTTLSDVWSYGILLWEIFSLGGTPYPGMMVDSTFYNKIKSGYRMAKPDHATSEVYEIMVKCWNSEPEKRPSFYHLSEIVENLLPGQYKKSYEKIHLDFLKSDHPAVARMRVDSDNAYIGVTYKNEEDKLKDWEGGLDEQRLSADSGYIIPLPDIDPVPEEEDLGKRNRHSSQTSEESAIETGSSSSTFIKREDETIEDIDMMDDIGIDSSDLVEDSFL", "assay": "Inhibition of human PDGFRA D842V mutant at 0.1 uM relative to control"}, "[23]": {"target": "RAC-alpha serine/threonine-protein kinase (Homo sapiens) (UniProt P31749)", "assay": "Inhibition of human AKT1 at 0.1 uM relative to control"}, "[24]": {"target": "Tyrosine-protein kinase Lck (Homo sapiens) (UniProt P06239)", "assay": "Inhibition of human LCK at 0.1 uM relative to control"}, "[25]": {"target": "Receptor-type tyrosine-protein kinase FLT3 (Homo sapiens) (UniProt P36888)", "details": "RS4:11 cell", "description": "Inhibition of wild type homozygous FLT3 in human RS4:11 cells assessed as cell growth inhibition after 72 hrs by MTS assay"}, "[26]": {"target": "Bcr/Abl fusion protein (Homo sapiens) (UniProt P00519+P11274)", "details": "K562", "description": "Inhibition of wild type BCR/ABL in FLT3 deficient human K562 cells assessed as cell growth inhibition after 72 hrs by MTS assay"}, "[27]": {"target": "Inhibitor of nuclear factor kappa-B kinase subunit epsilon (Homo sapiens) (UniProt Q14164)", "assay": "Inhibition of human IKKepsilon at 0.1 uM relative to control"}, "[28]": {"tested_on": "Receptor-type tyrosine-protein kinase FLT3 (Homo sapiens), P36888 [UNDEFINED MUTATION]", "details": "MV4-11", "description": "Inhibition of FLT3 ITD homozygous mutant in human MV4-11 cells assessed as cell growth inhibition after 72 hrs by MTS assay"}},
  "note": "pIC50: −log10 of the molar value.",
  "data": [
    {"smiles": "CCc1cc(NC(=O)Nc2ccc(-c3cnc(Nc4cc(N5CCN(CC)CC5)nc(C)n4)s3)cc2)no1", "values": [
      {"measurement": "inhibition", "setting": "[1]", "value": 9, "unit": "%"},
      {"measurement": "inhibition", "setting": "[2]", "value": 45, "unit": "%"},
      {"measurement": "inhibition", "setting": "[3]", "value": 64, "unit": "%"},
      {"measurement": "inhibition", "setting": "[4]", "value": 61, "unit": "%"},
      {"measurement": "inhibition", "setting": "[5]", "value": 10, "unit": "%"},
      {"measurement": "inhibition", "setting": "[6]", "value": 36, "unit": "%"},
      {"measurement": "bioavailability", "setting": "[7]", "value": 35, "unit": "%"},
      {"measurement": "inhibition", "setting": "[8]", "value": 16, "unit": "%"},
      {"measurement": "inhibition", "setting": "[9]", "value": 16, "unit": "%"},
      {"measurement": "inhibition in vivo at 10 mg/kg/day", "setting": "animal or person", "value": 68, "unit": "%"},
      {"measurement": "inhibition", "setting": "[10]", "value": 2, "unit": "%"},
      {"measurement": "pIC50", "setting": "[11]", "value": 7.42},
      {"measurement": "inhibition", "setting": "[12]", "value": -1, "unit": "%"},
      {"measurement": "inhibition", "setting": "[13]", "value": 17, "unit": "%"},
      {"measurement": "inhibition", "setting": "[14]", "value": 61, "unit": "%"},
      {"measurement": "inhibition", "setting": "[15]", "value": -8, "unit": "%"},
      {"measurement": "inhibition", "setting": "[16]", "value": 51, "unit": "%"},
      {"measurement": "inhibition", "setting": "[17]", "value": 72, "unit": "%"},
      {"measurement": "inhibition", "setting": "[18]", "value": 65, "unit": "%"},
      {"measurement": "half-life", "setting": "[19]", "value": 4.3, "unit": "h"},
      {"measurement": "GI50", "setting": "U-937", "value": 1100, "unit": "nM"},
      {"measurement": "Cmax", "setting": "[20]", "value": 122, "unit": "ng/mL"},
      {"measurement": "bioavailability", "setting": "[21]", "value": 20, "unit": "%"},
      {"measurement": "inhibition", "setting": "[22]", "value": 21, "unit": "%"},
      {"measurement": "inhibition", "setting": "[23]", "value": 0, "unit": "%"},
      {"measurement": "inhibition", "setting": "[24]", "value": 92, "unit": "%"},
      {"measurement": "GI50", "setting": "[25]", "value": 110, "unit": "nM"},
      {"measurement": "GI50", "setting": "[26]", "value": 190, "unit": "nM"},
      {"measurement": "inhibition", "setting": "[27]", "value": 18, "unit": "%"},
      {"measurement": "GI50", "setting": "[28]", "value": 1, "unit": "nM"}
    ]}
  ]
}
